Read-outs that look alike come from different tables or passages of the source. Where a SMILES comes first, the peptide text is derived from it. Where no end group is shown, it is not given here. [ ]: non-standard residue; d: D form. dOrn = NCCC[C@@H](N)C(=O)O; Orn = NCCC[C@H](N)C(=O)O
Tests used:
IL-1R/IL-1RacP = molecular target: T1, IL-1R/IL-1RacP (Homo sapiens, UniProt P14778+Q9NPH3); experiment: IL-1β-induced proliferation in TF-1 cells; assay type: cell-based; conditions: for activity relative to 101.113: Table 11
T1 construct: TF-1 cells; endogenous in cells; host or cells: TF-1
T1 sequence (P14778 18-569): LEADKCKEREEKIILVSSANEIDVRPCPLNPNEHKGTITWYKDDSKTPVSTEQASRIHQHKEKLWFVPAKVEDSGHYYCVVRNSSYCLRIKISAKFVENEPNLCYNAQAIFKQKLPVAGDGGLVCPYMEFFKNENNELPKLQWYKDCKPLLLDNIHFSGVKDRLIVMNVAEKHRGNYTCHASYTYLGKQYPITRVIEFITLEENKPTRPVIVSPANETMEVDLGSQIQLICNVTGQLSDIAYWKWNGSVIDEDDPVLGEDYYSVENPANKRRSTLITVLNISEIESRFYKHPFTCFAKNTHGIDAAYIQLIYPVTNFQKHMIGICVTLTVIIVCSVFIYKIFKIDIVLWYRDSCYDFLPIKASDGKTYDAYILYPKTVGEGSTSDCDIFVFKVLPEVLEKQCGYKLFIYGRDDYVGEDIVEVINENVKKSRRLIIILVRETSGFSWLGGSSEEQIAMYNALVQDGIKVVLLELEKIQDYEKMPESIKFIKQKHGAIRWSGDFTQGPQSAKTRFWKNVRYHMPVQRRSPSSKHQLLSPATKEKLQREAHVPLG
T1 sequence (Q9NPH3 21-570): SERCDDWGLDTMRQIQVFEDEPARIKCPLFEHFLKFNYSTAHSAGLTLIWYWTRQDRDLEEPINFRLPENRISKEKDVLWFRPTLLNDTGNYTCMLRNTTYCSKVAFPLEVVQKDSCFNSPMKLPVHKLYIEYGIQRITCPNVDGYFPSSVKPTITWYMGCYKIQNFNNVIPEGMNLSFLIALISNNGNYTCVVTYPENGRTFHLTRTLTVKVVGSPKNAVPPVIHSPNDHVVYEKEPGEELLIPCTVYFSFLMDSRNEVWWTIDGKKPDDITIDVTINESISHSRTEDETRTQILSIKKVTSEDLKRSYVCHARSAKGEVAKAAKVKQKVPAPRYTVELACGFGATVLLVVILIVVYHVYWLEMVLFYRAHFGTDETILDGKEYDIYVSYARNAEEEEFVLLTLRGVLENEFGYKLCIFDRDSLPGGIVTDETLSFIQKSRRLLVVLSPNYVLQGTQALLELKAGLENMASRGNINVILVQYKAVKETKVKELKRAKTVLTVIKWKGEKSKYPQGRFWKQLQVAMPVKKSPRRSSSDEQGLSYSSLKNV

IGF-1R = IGF-1R (Homo sapiens, UniProt P08069); experiment: IGF-1 induced proliferation of MCF-7 breast carcinoma cells (3H-thymidine); assay type: cell-based; design: MCF-7 breast carcinoma cells; endogenous in cells; host or cells: MCF-7; conditions: MCF7; MCF-7 (breast cancer) cells; Table 5; read-out: Emax
Experimental: We also tested the effect IGF-1R antagonist peptides on IGF-1 induced proliferation in other cancer cell types (MCF-7 breast carcinoma cells, HepG2 hepatocarcinoma cells, and MDA-MB-231 breast adenocarcinoma cells). Different cancer cells were pre-incubated (45 min.) with different concentrations of peptides prior to stimulation with IGF-1 (50 ng/ml) (37° C.) for 24 hours; fetal calf serum was omitted 24 hours prior to stimulation with IGF-1 to avoid proliferative effects by other mitotic agents. ^3H-thymidine (1 μCi/ml) was then added for 24 hours, after which cells were washed three times with 5% cold TCA and lysed with 0.1N NaOH/0.1% Triton X-100. Radioactivity was measured with a scintillation counter. Experiments were repeated 3 times in duplicates (FIG. 15). […]

[1] = test system: TNBS-induced colon inflammation; experiment: TNBS rat model of inflammatory bowel disease; assay type: in vivo
Experimental: Colon inflammation was induced by intra-rectal/colon administration of the hapten trinitrobenzene sulphonic acid (TNBS) on male Sprague-Dawley rats (175-200 g) (Bouma, Nature Rev, 2003; Morris, Gastroenterology, 1989). Animals were anesthetized with isoflurane and TNBS dissolved in 50% ethanol (vol/vol). 120 mg/ml (TNBS) was administered into the colon (total volume of 0.25 ml per rat) using a polyethylene tube (PE50). The cannula was inserted at 8 cm from the anus and kept in place for at least 15 minutes after TNBS administration in order to prevent expulsion of the solution. Two hours prior to TNBS administration, the API-101 derivative API-101.10 (1.1 mg/kg) or 0.9% saline was administered intravenously via the caudal vein (total volume of 0.3 ml). […] A third group (control) was not injected with TNBS. Six days after administration of TNBS, rats were killed by CO2 inhalation. Day 6 was chosen as an endpoint because by day 7 spontaneous tissue regeneration begins and this can mask the therapeutic effect of the tested peptide or peptide derivative. Colon was removed and examined macroscopically (adhesions, ulcerations, discoloration and bleeding) and histologically (neutrophil infiltration, epithelial injury, crypt distortion and ulcerations) (Anthony et al., Int. J. Exp. Path. 76:215-224, 1995; Padol et al., Eur. J. of Gastroenterol. Hepatol. 12:257-265, 2000; Dieleman et al., […], 1997; Torres et al., Digestive Diseases and Sciences 44:2523-2529, 1999). Two animals per group were studied.
Histological transversal sections were cut at 4-6 cm from the proximal anal region and colored with the hematoxylin/eosin method. The TNBS model of inflammatory bowel disease reproduces the inflammatory characteristics and tissue injuries of Crohn's disease (e.g., in humans). Morphologically, the colon of the animals injected with TNBS presented thickening, edema, and discoloration of the intestinal wall indicating a significant inflammation. […] Histological features consisted of neutrophil infiltration into the epithelial layer and crypts, epithelial lining injury as well as the loss of crypts. […] The organization and integrity of the crypts in the API-101.10-treated colon is conserved even if there is still some inflammation (half the dose of API-101.10 was used as compared to the macroscopic analysis experiment).
Colon inflammation was induced by intra-rectal/colon administration of the hapten trinitrobenzene sulphonic acid (TNBS) as described above. Two hours prior to TNBS administration, peptides, peptidomimetics or 0.9% saline were administered intravenously (iv) via the caudal vein (various concentrations of mg/kg/d) (total volume of 0.3 ml). […] A third group (control) was not injected with TNBS. For intermittent administration, fifteen minutes after TNBS administration, 101.10 (0.25-1 mg/kg), 101.107 (0.2 mg/kg), 101.113 (0.05-1 mg/kg) were administered by intermittent intraperitoneal injection (ip). Also, these IL-1R antagonists were given twice a day (BID); Remicade® (anti-TNFα) (10 mg/kg) and dexamethasone (0.75 mg/kg) were administered intraperitoneally but only once a day (qd). The intrarectal administration (ir) of 101.10, 101.113 (1 and 2.5 mg/kg), and 5-ASA (50 mg/kg) was done one hour after TNBS administration, and twice a day, except for 5-ASA which is once a day. Finally, 101.10 (1-5 mg/kg) was also administered orally by gavage (po), twice a day. Forty-eight hours after administration of TNBS, rats were killed by CO2 inhalation. The colon was removed and assessed macroscopically (adhesions, ulcerations, discoloration and bleeding) and histologically (neutrophil infiltration, epithelial injury, crypt distortion and ulcerations). One to seven animals per group were studied, according to treatments. Myeloperoxidase (MPO) activity was measured on tissue lysates.

[2] = TF-1, Table 11, read-out: Emax (%), IL-1β-induced TF-1 proliferation
[3] = continuous infusion (ip), 8.0 mg/kg/d
[4] = intermittent injection (ip), 0.75-qd mg/kg/d
[5] = TF-1, IL-1β-induced, Table 10, read-out: Emax (%), proliferation in TF-1 cells (human)
[6] = intermittent injection (ip), 10.0-qd mg/kg/d
[7] = intrarectal administration, 50.0-qd mg/kg/d

Chain of IGF-1R (P08069 31-736 limits assumed): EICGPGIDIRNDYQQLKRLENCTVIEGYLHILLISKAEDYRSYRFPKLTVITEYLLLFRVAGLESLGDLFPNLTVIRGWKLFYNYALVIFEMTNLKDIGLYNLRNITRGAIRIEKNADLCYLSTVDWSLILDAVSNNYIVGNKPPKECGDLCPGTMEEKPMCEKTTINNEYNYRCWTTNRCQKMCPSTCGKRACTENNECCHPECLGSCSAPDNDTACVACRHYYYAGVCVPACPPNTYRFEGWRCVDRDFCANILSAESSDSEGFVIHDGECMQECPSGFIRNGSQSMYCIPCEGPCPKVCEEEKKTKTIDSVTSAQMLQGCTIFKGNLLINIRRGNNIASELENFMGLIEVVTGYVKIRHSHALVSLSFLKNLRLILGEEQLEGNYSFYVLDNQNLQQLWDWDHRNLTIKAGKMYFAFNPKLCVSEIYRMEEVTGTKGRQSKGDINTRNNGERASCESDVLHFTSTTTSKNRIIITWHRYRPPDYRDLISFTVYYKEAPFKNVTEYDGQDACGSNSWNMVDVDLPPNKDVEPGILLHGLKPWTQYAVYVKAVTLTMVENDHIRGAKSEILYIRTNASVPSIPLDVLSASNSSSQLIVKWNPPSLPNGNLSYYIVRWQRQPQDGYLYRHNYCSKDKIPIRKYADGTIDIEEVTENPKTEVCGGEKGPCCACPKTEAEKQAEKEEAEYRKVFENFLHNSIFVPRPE
Chain of IGF-1R (P08069 741-1367 limits assumed): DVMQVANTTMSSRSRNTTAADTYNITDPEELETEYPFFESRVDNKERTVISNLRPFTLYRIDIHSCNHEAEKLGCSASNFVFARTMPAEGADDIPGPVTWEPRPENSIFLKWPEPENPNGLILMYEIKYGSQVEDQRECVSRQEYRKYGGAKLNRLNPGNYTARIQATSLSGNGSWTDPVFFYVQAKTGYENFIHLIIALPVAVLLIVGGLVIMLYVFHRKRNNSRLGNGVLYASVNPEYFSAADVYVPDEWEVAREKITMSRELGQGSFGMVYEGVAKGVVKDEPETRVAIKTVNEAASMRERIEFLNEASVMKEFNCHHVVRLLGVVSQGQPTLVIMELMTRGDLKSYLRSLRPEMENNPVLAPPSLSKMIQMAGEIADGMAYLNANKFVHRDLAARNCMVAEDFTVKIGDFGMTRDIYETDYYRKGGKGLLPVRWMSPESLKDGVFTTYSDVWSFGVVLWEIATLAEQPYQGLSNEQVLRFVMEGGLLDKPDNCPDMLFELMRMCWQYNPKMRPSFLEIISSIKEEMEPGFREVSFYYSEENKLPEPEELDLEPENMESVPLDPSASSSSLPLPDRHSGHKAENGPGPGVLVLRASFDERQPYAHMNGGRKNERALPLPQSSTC

For `CC(C)C[C@@H](NC(=O)[C@@H](CCC(=O)O)NC(=O)[C@H]1CCCN1C(=O)[C@H](NC(=O)[C@@H](Cc1ccc(O)cc1)NC(=O)[C@@H](N)CCCNC(=N)N)[C@H](C)O)C(=O)O` [API-101.135, *RYTPEL], the Emax (IL-1R/IL-1RacP; [2]) was 63%.
In the case of `CC(C)C[C@@H](NC(=O)[C@@H](CCC(=O)O)NC(=O)[C@H]1CCCN1C(=O)[C@H](NC(=O)[C@@H](Cc1c[nH]c2ccccc12)NC(=O)[C@H](N)CCCNC(=N)N)[C@H](C)O)C(=O)O` [API-101.128, RWTPEL] (H-[dR][dW][dT][dP][dE][dL]-OH; N-terminus and C-terminus assumed), the Emax (IL-1R/IL-1RacP; [2]) is reported as 100% and the “activity relative to 101.113” value (IL-1R/IL-1RacP) is reported as “relatively decreased”.
With RTVLSNL [APG-206.8, RTVLSNL] the Emax (IGF-1R) was 100%.
With “Kineret: Amgen drug, a selective blocker of IL-1; commercial analog of IL-1R antagonist (IL-Ra) [reference compound]” the “Histologic evaluation (median score)” value [1, 3] was 2 (Small ulcer (<5 crypts)) and the “MPO (% of TNBS + Saline)” value [1, 3] was 63 % of TNBS + Saline.
In the case of `CC(C)C[C@@H](NC(=O)[C@@H](CCC(=O)O)NC(=O)[C@H]1CCCN1C(=O)[C@H](NC(=O)[C@@H](Cc1ccccc1)NC(=O)[C@H](N)CCCNC(=N)N)[C@H](C)O)C(=O)O` [API-101.132, RFTPEL] (H-[dR][dF][dT][dP][dE][dL]-OH; N-terminus and C-terminus assumed), the Emax (IL-1R/IL-1RacP; [2]) is reported as 35% and the “activity relative to 101.113” value (IL-1R/IL-1RacP) is reported as “relatively decreased”.
For `C[C@@H]1C[C@H]2[C@@H]3CCC4=CC(=O)C=C[C@]4(C)[C@@]3(F)[C@@H](O)C[C@]2(C)[C@@]1(O)C(=O)CO` [Dexamethasone, dexamethasone, reference compound], the “Histologic evaluation (median score)” value [1, 4] was 3 (Medium ulcer (5-10 crypts)), the “MPO (% of TNBS + Saline)” value [1, 4] was 60 % of TNBS + Saline and the “Macroscopic evaluation (median score)” value [1, 4] was 0.87 median score.
`CC(C)C[C@@H](NC(=O)[C@@H](CCC(=O)O)NC(=O)[C@H]1CCCN1C(=O)[C@H](NC(=O)[C@@H](Cc1c[nH]c2ccccc12)NC(=O)[C@H](N)CCCNC(=N)N)[C@H](C)O)C(=O)N[C@H](C)C(=O)O` [API-101.116, RWTPELA] gave an Emax (IL-1R/IL-1RacP; [5]) of 75%.
In the case of `CC(C)C[C@@H](NC(=O)[C@@H](CCC(=O)O)NC(=O)[C@H]1CCCN1C(=O)[C@H](NC(=O)[C@@H](Cc1ccc(O)cc1)NC(=O)[C@H](N)CCCN)[C@H](C)O)C(=O)N[C@H](C)C(=O)O` [API-101.115, XYTPELA (X = Ornithine)] (H-[dOrn][dY][dT][dP][dE][dL][dA]-OH), the Emax (IL-1R/IL-1RacP; [5]) is reported as 100%.
In the case of RFVPELA [API-101.127, RFVPELA], the Emax (IL-1R/IL-1RacP; [2]) is reported as < 30%.
With `CC(C)C[C@@H](NC(=O)[C@@H](CCC(=O)O)NC(=O)[C@H]1CCCN1C(=O)[C@H](NC(=O)[C@@H](Cc1ccc(O)cc1)NC(=O)[C@H](N)CCCNC(=N)N)[C@H](C)O)C(=O)O` [API-101.113, RYTPEL] the Emax (IL-1R/IL-1RacP; [5]) was 100%.
In the case of `CC(C)C[C@@H](NC(=O)[C@@H](CCC(=O)O)NC(=O)[C@H]1CCCN1C(=O)[C@H](NC(=O)[C@@H](Cc1ccc(O)cc1)NC(=O)[C@H](N)CCCNC(N)=O)[C@H](C)O)C(=O)O` [API-101.134, XYTPEL (X = Citrulline)], the Emax (IL-1R/IL-1RacP; [2]) is reported as 10% and the “activity relative to 101.113” value (IL-1R/IL-1RacP) is reported as “little or no activity”.
For KYTPEL [API-101.133, KYTPEL], the Emax (IL-1R/IL-1RacP; [2]) was < 10%.
`CC(C)C[C@H](NC(=O)[C@H](CCC(=O)O)NC(=O)[C@@H]1CCCN1C(=O)[C@@H](NC(=O)[C@H](Cc1ccc(O)cc1)NC(=O)[C@@H](N)CCCN)[C@@H](C)O)C(=O)O` [API-101.126, XYTPEL (X = Ornithine)] (H-[Orn]YTPEL-OH) was tested, and the Emax (IL-1R/IL-1RacP; [2]) was 0%.
With “Remicade ®: anti-TNFα [reference compound]” the “Histologic evaluation (median score)” value [1, 6] was 2.5 median score, the “MPO (% of TNBS + Saline)” value [1, 6] was 88 ± 41 % of TNBS + Saline and the “Macroscopic evaluation (median score)” value [1, 6] was 0.5 median score.
In the case of `Nc1ccc(O)c(C(=O)O)c1` [Peptide 5-ASA, 5-ASA, reference compound], the “Histologic evaluation (median score)” value [1, 7] is reported as 3.3 median score, the “MPO (% of TNBS + Saline)” value [1, 7] is reported as 49 % of TNBS + Saline and the “Macroscopic evaluation (median score)” value [1, 7] is reported as 1.5 median score.

— patent publication US20110144014A1, “CYTOKINE RECEPTOR MODULATORS AND USES THEREOF” (CENTRE HOSPITALIER UNIVERSITAIRE SAINTE-JUSTINE, priority 2005, published 2011)
